The text below walks through data of PubChem BioAssay (NCI).

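96-well plates; 48 h exposure; 5 concentrations. Endpoints by linear interpolation between flanking doses. Not reached: highest tested concentration assigned. The concentration for full growth arrest is given as TGI.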 A value given as a limit tells only on which side of the number the result lay.

Test systems include RPMI-8226 leukemia; HCT-116 colon; EKVX NSCLC; SK-MEL-2 melanoma; MDA-MB-231 breast; OVCAR-3 ovarian; TK-10 renal; KM12 colon; HCT-15 colon; A549 NSCLC; BT-549 breast; 786-0 renal; LOX IMVI melanoma; M14 melanoma; CAKI-1 renal; NCI/ADR-RES ovarian; MDA-N; MALME-3M melanoma; DU-145 prostate.
Common to all, as to assay: NCI-60 cell line screen, 48 h

Take `COC(=O)C1([C@@H]2C[C@@H](O)[C@]3(C)CC/C=C(\C)CCC[C@H](C)[C@H](O)[C@@H]2O3)CC1`: the TGI in the assay with RPMI-8226 leukemia, in the assay on HCT-116 colon, in the assay on EKVX NSCLC, in the assay with SK-MEL-2 melanoma, in the assay on MDA-MB-231 breast and in the assay on OVCAR-3 ovarian was greater than 100 µM throughout. In addition, the TGI in the assay on TK-10 renal, in the assay on KM12 colon, in the assay on HCT-15 colon, in the assay on A549 NSCLC, with BT-549 breast and in the assay on 786-0 renal was greater than 100 µM throughout. For the same molecule, the TGI in the assay with LOX IMVI melanoma, with M14 melanoma, in the assay with CAKI-1 renal, with NCI/ADR-RES ovarian, in the assay on MDA-N and in the assay on MALME-3M melanoma was greater than 100 µM throughout. The TGI in the assay with DU-145 prostate is greater than 100 µM.

Turning to `C=CCNC1=C2C[C@@H](C)C[C@@H](OC)[C@H](OC(=O)CN(C)C)[C@H](C)/C=C(\C)[C@@H](OC(N)=O)[C@H](OC)/C=C\C=C(/C)C(=O)NC(=CC1=O)C2=O`, the TGI in the assay with RPMI-8226 leukemia was greater than 48.2 µM; in the assay with HCT-116 colon it was 16.2 µM; with EKVX NSCLC it was 21.8 µM; in the assay on SK-MEL-2 melanoma, 13.9 µM; in the assay on MDA-MB-231 breast, 10.5 µM; with OVCAR-3 ovarian, 13.8 µM. Besides, the TGI with TK-10 renal stood at 16.3 µM; in the assay with KM12 colon, 0.274 µM; in the assay with HCT-15 colon, 20.4 µM; with A549 NSCLC, 16.9 µM; with BT-549 breast it was 24 µM; in the assay with 786-0 renal it was 21 µM. Besides, the TGI in the assay on LOX IMVI melanoma is 8.19 µM; in the assay on M14 melanoma, 18.9 µM; with CAKI-1 renal, 31.9 µM; in the assay on NCI/ADR-RES ovarian, greater than 92.1 µM; in the assay with MDA-N, 13.3 µM; in the assay with MALME-3M melanoma, 19 µM. Also, the TGI with DU-145 prostate turned out to be 2.72 µM.

With `CN(C)c1ccc(N=Nc2cccc3ccoc23)cc1`, the TGI in the assay on RPMI-8226 leukemia, with HCT-116 colon, in the assay on EKVX NSCLC, with SK-MEL-2 melanoma, with MDA-MB-231 breast and in the assay on OVCAR-3 ovarian was greater than 100 µM throughout. Also, the TGI in the assay on TK-10 renal, in the assay on KM12 colon, with HCT-15 colon, with A549 NSCLC, with BT-549 breast and in the assay on 786-0 renal was greater than 100 µM throughout. In addition, the TGI in the assay on LOX IMVI melanoma, in the assay with M14 melanoma, in the assay on CAKI-1 renal, in the assay on NCI/ADR-RES ovarian, with MDA-N and in the assay with MALME-3M melanoma was greater than 100 µM throughout. In the assay on DU-145 prostate, this molecule registered a TGI greater than 100 µM.

As for `CCOC(=O)CSc1nc2ccccc2c(=O)n1N`, the TGI in the assay on RPMI-8226 leukemia, with HCT-116 colon, in the assay with EKVX NSCLC, in the assay with SK-MEL-2 melanoma, in the assay with MDA-MB-231 breast and in the assay with OVCAR-3 ovarian was greater than 100 µM in each case. Also, the TGI in the assay with TK-10 renal, in the assay on KM12 colon, with HCT-15 colon, with A549 NSCLC, in the assay with BT-549 breast and in the assay on 786-0 renal was greater than 100 µM throughout. Besides, the TGI in the assay on LOX IMVI melanoma, in the assay with M14 melanoma, with CAKI-1 renal, with NCI/ADR-RES ovarian, in the assay with MDA-N and with MALME-3M melanoma was greater than 100 µM throughout. Besides, in the assay with DU-145 prostate, the TGI was greater than 100 µM.

Consider `CN(CCc1ccc(Br)cc1)CCN1CCCCC1`, for which the TGI in the assay on RPMI-8226 leukemia was greater than 100 µM; in the assay with HCT-116 colon, greater than 100 µM; with EKVX NSCLC, greater than 100 µM; in the assay on SK-MEL-2 melanoma it was 64.3 µM; in the assay with MDA-MB-231 breast it was greater than 100 µM; in the assay on OVCAR-3 ovarian, greater than 100 µM. In addition, the TGI in the assay with TK-10 renal was greater than 100 µM; in the assay on KM12 colon, 41.9 µM; in the assay with HCT-15 colon it was greater than 100 µM; with A549 NSCLC, greater than 100 µM; in the assay with BT-549 breast, 96.1 µM; with 786-0 renal, greater than 100 µM. The TGI was 94.2 µM with LOX IMVI melanoma; 45.8 µM in the assay with M14 melanoma; greater than 100 µM in the assay with CAKI-1 renal; greater than 100 µM in the assay with NCI/ADR-RES ovarian; 88 µM in the assay on MDA-N; 48.7 µM with MALME-3M melanoma. The molecule also returned a TGI with DU-145 prostate greater than 100 µM.

As for `N#Cc1c(C#N)c(-c2cccc([N+](=O)[O-])c2)n(-c2ccccc2)c1N`, the TGI with RPMI-8226 leukemia, with HCT-116 colon, with EKVX NSCLC, with SK-MEL-2 melanoma, in the assay on MDA-MB-231 breast and in the assay with OVCAR-3 ovarian was greater than 100 µM each time. The TGI in the assay with TK-10 renal, in the assay on KM12 colon, in the assay on HCT-15 colon, in the assay with A549 NSCLC, with BT-549 breast and in the assay on 786-0 renal was greater than 100 µM throughout. The TGI in the assay on LOX IMVI melanoma, with M14 melanoma, in the assay on CAKI-1 renal, with NCI/ADR-RES ovarian, in the assay on MDA-N and in the assay with MALME-3M melanoma was greater than 100 µM throughout. Further, the TGI in the assay with DU-145 prostate is greater than 100 µM.

For the molecule `O=C1c2ccccc2C(=O)c2c(OCC3CO3)ccc(OCC3CO3)c21` (centres undefined), the TGI in the assay on RPMI-8226 leukemia is 19.8 µM; in the assay with HCT-116 colon it was 11.5 µM; with EKVX NSCLC, 35.5 µM; in the assay with SK-MEL-2 melanoma, 27.8 µM; with MDA-MB-231 breast, greater than 34 µM; in the assay on OVCAR-3 ovarian, 10.7 µM. The TGI in the assay with TK-10 renal is 53.1 µM; with KM12 colon, 11.4 µM; in the assay on HCT-15 colon, 4.5 µM; in the assay with A549 NSCLC, 22.2 µM; in the assay on BT-549 breast it was 15.5 µM; in the assay with 786-0 renal, 6.48 µM. Also, the TGI with LOX IMVI melanoma is 0.515 µM; in the assay with M14 melanoma it was 4.78 µM; with CAKI-1 renal it was 10.6 µM; in the assay with NCI/ADR-RES ovarian it was 8.73 µM; in the assay with MDA-N, 23.8 µM; in the assay with MALME-3M melanoma, 20 µM. Also, in the assay with DU-145 prostate, the TGI was found to be 13.3 µM.

Regarding `CC1=C(C)SC(=C2Sc3c(n(C)c(=O)[nH]c3=O)S2)S1`, the TGI in the assay with RPMI-8226 leukemia, in the assay with HCT-116 colon, in the assay with EKVX NSCLC, in the assay with SK-MEL-2 melanoma, with MDA-MB-231 breast and with OVCAR-3 ovarian was greater than 100 µM in each case. The TGI in the assay with TK-10 renal, in the assay with KM12 colon, in the assay on HCT-15 colon, in the assay on A549 NSCLC, with BT-549 breast and in the assay with 786-0 renal was greater than 100 µM throughout. Besides, the TGI in the assay with LOX IMVI melanoma, in the assay on M14 melanoma, with CAKI-1 renal, with NCI/ADR-RES ovarian, with MDA-N and in the assay on MALME-3M melanoma was greater than 100 µM throughout. This molecule had a TGI with DU-145 prostate greater than 100 µM.

Regarding `O=C(NO)c1cccc(OCc2ccc(Br)cc2)c1`, the TGI in the assay on RPMI-8226 leukemia was 24.3 µM; in the assay with HCT-116 colon, 15.2 µM; in the assay with EKVX NSCLC, greater than 79.3 µM; with SK-MEL-2 melanoma it was 50 µM; in the assay on MDA-MB-231 breast it was 86.3 µM; in the assay on OVCAR-3 ovarian, greater than 48.1 µM. Also, the TGI was greater than 100 µM in the assay on TK-10 renal; greater than 64.9 µM in the assay with KM12 colon; greater than 100 µM in the assay with HCT-15 colon; greater than 58.5 µM in the assay with A549 NSCLC; greater than 100 µM in the assay with BT-549 breast; 10.9 µM in the assay on 786-0 renal. In addition, the TGI is greater than 34.8 µM in the assay with LOX IMVI melanoma; 20.1 µM in the assay with M14 melanoma; 15 µM with CAKI-1 renal; 28.4 µM in the assay with NCI/ADR-RES ovarian; 27.5 µM in the assay on MDA-N; 17.6 µM with MALME-3M melanoma. Besides, in the assay with DU-145 prostate, the TGI turned out to be 13.7 µM.

Consider `CCCCCCNC(=O)c1cc(NCc2cc(OC)ccc2OC)ccc1O`, for which the TGI amounted to 35.6 µM with RPMI-8226 leukemia; 49.6 µM in the assay with HCT-116 colon; 63.1 µM in the assay with EKVX NSCLC; 45.8 µM in the assay on SK-MEL-2 melanoma; 46.7 µM in the assay with MDA-MB-231 breast; 7.05 µM with OVCAR-3 ovarian. The TGI in the assay on TK-10 renal is greater than 100 µM; in the assay on KM12 colon, 80 µM; in the assay with HCT-15 colon, 57.3 µM; with A549 NSCLC it was greater than 100 µM; with BT-549 breast, 33.4 µM; in the assay with 786-0 renal, 75 µM. The TGI in the assay on LOX IMVI melanoma is 32.9 µM; in the assay with M14 melanoma, 38.4 µM; in the assay on CAKI-1 renal, 98 µM; with NCI/ADR-RES ovarian it was 48.1 µM; in the assay with MDA-N, 41.8 µM; in the assay on MALME-3M melanoma it was 55.9 µM. The molecule further had a TGI in the assay on DU-145 prostate greater than 100 µM.

With `O=C(NNC(=S)Nc1ccccc1)C12CC3CC(CC(C3)C1)C2`, the TGI is greater than 100 µM with RPMI-8226 leukemia; greater than 94.3 µM in the assay with HCT-116 colon; greater than 100 µM in the assay with EKVX NSCLC; greater than 86.9 µM in the assay on SK-MEL-2 melanoma; greater than 100 µM in the assay on MDA-MB-231 breast; greater than 67.7 µM in the assay with OVCAR-3 ovarian. Besides, the TGI in the assay with TK-10 renal is greater than 100 µM; with KM12 colon, greater than 100 µM; in the assay on HCT-15 colon, greater than 100 µM; in the assay on A549 NSCLC it was greater than 100 µM; in the assay on BT-549 breast, 60.8 µM; in the assay with 786-0 renal, greater than 100 µM. For the same molecule, the TGI is greater than 91.9 µM with LOX IMVI melanoma; 67 µM in the assay on M14 melanoma; greater than 100 µM in the assay with CAKI-1 renal; 59.7 µM in the assay with NCI/ADR-RES ovarian; greater than 100 µM in the assay on MDA-N; greater than 100 µM with MALME-3M melanoma. For the same molecule, in the assay on DU-145 prostate, the TGI was greater than 100 µM.
